# Measured values as given in US20070049564A1 (Wyeth, priority 2005, published 2007).
# Read-outs that look alike come from different tables or passages of the source.
# Experiments:
# [1] = test system: E. faecalis GC 2242; assay: MIC, broth microdilution; settings: Enterococcus faecalis
# [2] = test system: E. coli GC 4559; assay: MIC, broth microdilution; settings: Escherichia coli
# [3] = test system: S. aureus GC 4536; assay: MIC, broth microdilution; settings: Staphylococcus aureus
# [4] = test system: E. coli GC 3226; assay: MIC, broth microdilution; settings: Escherichia coli
# [5] = test system: E. coli GC 2232; assay: MIC, broth microdilution; settings: Escherichia coli
# [6] = test system: S. pneumoniae+ GC 4465; assay: MIC, broth microdilution; settings: Streptococcus pneumoniae
# [7] = test system: S. aureus GC 2216; assay: MIC, broth microdilution; settings: Staphylococcus aureus
# [8] = test system: S. pyogenes GC 4563; assay: MIC, broth microdilution; settings: Streptococcus pyogenes
# [9] = test system: E. faecalis GC 2265; assay: MIC, broth microdilution; settings: Enterococcus faecalis
# [10] = test system: S. agalactiae GC 4564; assay: MIC, broth microdilution; settings: Streptococcus agalactiae
# [11] = test system: E. coli; assay: Range of MIC for E. coli strains; settings: Escherichia coli
# Method: Antimicrobial susceptibility testing. The in vitro activities of the antibiotics are determined by the broth microdilution method as recommended by the National Committee for Clinical Laboratory Standards (NCCLS) (1). Mueller-Hinton II broth (MHBII)(BBL Cockeysville, Md.) is the medium employed in the testing procedures. Microtiter plates containing serial dilutions of each antimicrobial agent are inoculated with each organism to yield the appropriate density (10^5 CFU/ml) in a 100 μl final volume. The plates are incubated for 18-22 hours at 35° C. in ambient air.
# Representative compounds were first incubated in mouse serum for an hour prior to the in vitro testing against a panel of selected gram-positive and gram-negative bacteria strains. All compounds were also pre-incubated in water for an hour prior to testing as control. Representative compounds of Formula I were incubated in human serum prior to MIC determination.
# [12] = test system: E. coli GC 2270; assay: MIC, broth microdilution; settings: Escherichia coli
# [13] = test system: S. aureus GC 6335; assay: MIC, broth microdilution; settings: Staphylococcus aureus
# [14] = test system: E. coli GC 2271; assay: MIC, broth microdilution; settings: Escherichia coli
# [15] = test system: E. faecium GC 2243; assay: MIC, broth microdilution; settings: Enterococcus faecium
# [16] = test system: E. coli GC 1073; assay: MIC, broth microdilution; settings: Escherichia coli
# [17] = test system: c. albicans GC 3066; assay: MIC, broth microdilution
# [18] = test system: Staph. aureus Smith; assay: In vivo activity (oral, iv; ED50) against Staph. aureus Smith in mice
# Method: Representative examples of compounds of Formula I were tested for the oral efficacy using S. aureus Smith in mice.
# [19] = test system: P. aeruginosa GC 2214; assay: MIC, broth microdilution; settings: Pseudomonas aeruginosa
# [20] = test system: S. aureus GC 6469; assay: MIC, broth microdilution; settings: Staphylococcus aureus
structure (smiles),measurement,setting,value
"CCC(C)(C)C(=O)OCOC(=O)N(CC(=O)Nc1cc(N(C)C)c2c(c1O)C(=O)C1=C(O)[C@]3(O)C(=O)C(C(N)=O)=C(O)[C@@H](N(C)C)[C@@H]3C[C@@H]1C2)C(C)(C)C [Example 44, ({[(2-{[(5aR,6aS,7S,10aS)-9-(aminocarbonyl)-4,7-bis(dimethylamino)-1,8,10a,11-tetrahydroxy-10,12-dioxo-5,5a,6,6a,7,10,10a,12-octahydrotetracen-2-yl]amino}-2-oxoethyl)(tert-butyl)amino]carbonyl}oxy)methyl 2,2-dimethylbutanoate]",MIC,"[1]; GC2242, read-out: MINIMAL INHIBITORY CONCENTRATION MIC, pre-incubated in Human Serum",4 µg/mL
same,MIC,"[1]; GC2242, read-out: MINIMAL INHIBITORY CONCENTRATION MIC, pre-incubated in Mouse Serum",2 µg/mL
same,MIC,"[1]; GC2242, read-out: MINIMAL INHIBITORY CONCENTRATION MIC, pre-incubated in Water",4 µg/mL
same,MIC,"[2]; GC4559, read-out: MINIMAL INHIBITORY CONCENTRATION MIC, pre-incubated in Human Serum",> 64 µg/mL
same,MIC,"[2]; GC4559, read-out: MINIMAL INHIBITORY CONCENTRATION MIC, pre-incubated in Mouse Serum",4 µg/mL
same,MIC,"[2]; GC4559, read-out: MINIMAL INHIBITORY CONCENTRATION MIC, pre-incubated in Water",> 64 µg/mL
same,MIC,"[3]; GC4536, read-out: MINIMAL INHIBITORY CONCENTRATION MIC, pre-incubated in Human Serum",2 µg/mL
same,MIC,"[3]; GC4536, read-out: MINIMAL INHIBITORY CONCENTRATION MIC, pre-incubated in Mouse Serum",2 µg/mL
same,MIC,"[3]; GC4536, read-out: MINIMAL INHIBITORY CONCENTRATION MIC, pre-incubated in Water",4 µg/mL
same,MIC,"[4]; GC3226, read-out: MINIMAL INHIBITORY CONCENTRATION MIC, pre-incubated in Human Serum",> 64 µg/mL
same,MIC,"[4]; GC3226, read-out: MINIMAL INHIBITORY CONCENTRATION MIC, pre-incubated in Mouse Serum",4 µg/mL
same,MIC,"[4]; GC3226, read-out: MINIMAL INHIBITORY CONCENTRATION MIC, pre-incubated in Water",> 64 µg/mL
same,MIC,"[5]; GC2232, read-out: MINIMAL INHIBITORY CONCENTRATION MIC, pre-incubated in Human Serum",> 64 µg/mL
same,MIC,"[5]; GC2232, read-out: MINIMAL INHIBITORY CONCENTRATION MIC, pre-incubated in Mouse Serum",2 µg/mL
same,MIC,"[5]; GC2232, read-out: MINIMAL INHIBITORY CONCENTRATION MIC, pre-incubated in Water",> 64 µg/mL
same,MIC,"[6]; read-out: MINIMAL INHIBITORY CONCENTRATION MIC, pre-incubated in Human Serum",4 µg/mL
same,MIC,"[6]; read-out: MINIMAL INHIBITORY CONCENTRATION MIC, pre-incubated in Mouse Serum",4 µg/mL
same,MIC,"[6]; read-out: MINIMAL INHIBITORY CONCENTRATION MIC, pre-incubated in Water",4 µg/mL
same,MIC,"[7]; GC2216, read-out: MINIMAL INHIBITORY CONCENTRATION MIC, pre-incubated in Human Serum",2 µg/mL
same,MIC,"[7]; GC2216, read-out: MINIMAL INHIBITORY CONCENTRATION MIC, pre-incubated in Mouse Serum",2 µg/mL
same,MIC,"[7]; GC2216, read-out: MINIMAL INHIBITORY CONCENTRATION MIC, pre-incubated in Water",2 µg/mL
same,MIC,"[8]; GC4563, read-out: MINIMAL INHIBITORY CONCENTRATION MIC, pre-incubated in Human Serum",4 µg/mL
same,MIC,"[8]; GC4563, read-out: MINIMAL INHIBITORY CONCENTRATION MIC, pre-incubated in Mouse Serum",1 µg/mL
same,MIC,"[8]; GC4563, read-out: MINIMAL INHIBITORY CONCENTRATION MIC, pre-incubated in Water",2 µg/mL
same,MIC,"[9]; GC2265, read-out: MINIMAL INHIBITORY CONCENTRATION MIC, pre-incubated in Human Serum",2 µg/mL
same,MIC,"[9]; GC2265, read-out: MINIMAL INHIBITORY CONCENTRATION MIC, pre-incubated in Mouse Serum",2 µg/mL
same,MIC,"[9]; GC2265, read-out: MINIMAL INHIBITORY CONCENTRATION MIC, pre-incubated in Water",4 µg/mL
same,MIC,"[10]; GC4564, read-out: MINIMAL INHIBITORY CONCENTRATION MIC, pre-incubated in Human Serum",4 µg/mL
same,MIC,"[10]; GC4564, read-out: MINIMAL INHIBITORY CONCENTRATION MIC, pre-incubated in Mouse Serum",1 µg/mL
same,MIC,"[10]; GC4564, read-out: MINIMAL INHIBITORY CONCENTRATION MIC, pre-incubated in Water",4 µg/mL
same,MIC,"[11]; 20 h, read-out: Range of MIC, E. coli (Mouse Serum)",2 to 8 µg/mL
same,MIC,"[11]; read-out: Minimum inhibitory concentration (MIC), E. coli (Human Serum)",> 64 µg/mL
same,MIC,"[11]; read-out: Minimum inhibitory concentration (MIC), E. coli (water)",> 64 µg/mL
same,MIC,"[11]; read-out: Range of MIC, E. coli (Water)",> 64 µg/mL
same,MIC,"[12]; GC2270, read-out: MINIMAL INHIBITORY CONCENTRATION MIC, pre-incubated in Human Serum",> 64 µg/mL
same,MIC,"[12]; GC2270, read-out: MINIMAL INHIBITORY CONCENTRATION MIC, pre-incubated in Mouse Serum",2 µg/mL
same,MIC,"[12]; GC2270, read-out: MINIMAL INHIBITORY CONCENTRATION MIC, pre-incubated in Water",> 64 µg/mL
same,MIC,"[13]; GC6335, read-out: MINIMAL INHIBITORY CONCENTRATION MIC, pre-incubated in Human Serum",4 µg/mL
same,MIC,"[13]; GC6335, read-out: MINIMAL INHIBITORY CONCENTRATION MIC, pre-incubated in Mouse Serum",2 µg/mL
same,MIC,"[13]; GC6335, read-out: MINIMAL INHIBITORY CONCENTRATION MIC, pre-incubated in Water",4 µg/mL
same,MIC,"[14]; GC2271, read-out: MINIMAL INHIBITORY CONCENTRATION MIC, pre-incubated in Human Serum",> 64 µg/mL
same,MIC,"[14]; GC2271, read-out: MINIMAL INHIBITORY CONCENTRATION MIC, pre-incubated in Mouse Serum",2 µg/mL
same,MIC,"[14]; GC2271, read-out: MINIMAL INHIBITORY CONCENTRATION MIC, pre-incubated in Water",> 64 µg/mL
same,MIC,"[15]; GC2243, read-out: MINIMAL INHIBITORY CONCENTRATION MIC, pre-incubated in Human Serum",4 µg/mL
same,MIC,"[15]; GC2243, read-out: MINIMAL INHIBITORY CONCENTRATION MIC, pre-incubated in Mouse Serum",2 µg/mL
same,MIC,"[15]; GC2243, read-out: MINIMAL INHIBITORY CONCENTRATION MIC, pre-incubated in Water",4 µg/mL
same,MIC,"[16]; GC1073, read-out: MINIMAL INHIBITORY CONCENTRATION MIC, pre-incubated in Human Serum",> 64 µg/mL
same,MIC,"[16]; GC1073, read-out: MINIMAL INHIBITORY CONCENTRATION MIC, pre-incubated in Mouse Serum",4 µg/mL
same,MIC,"[16]; GC1073, read-out: MINIMAL INHIBITORY CONCENTRATION MIC, pre-incubated in Water",> 64 µg/mL
same,MIC,"[17]; Candida albicans, GC3066, read-out: MINIMAL INHIBITORY CONCENTRATION MIC",> 64 µg/mL
same,MINIMAL INHIBITORY CONCENTRATION MIC,[17]; pre-incubated in Human Serum,>64 UG/ML
same,MINIMAL INHIBITORY CONCENTRATION MIC,[17]; pre-incubated in Mouse Serum,>64 UG/ML
same,ED50,"[18]; Staphylococcus aureus, in Mus musculus, iv, read-out: ED50 SIV (Staph aureus Smith)",0.75 mg/kg
same,ED50,"[18]; Staphylococcus aureus, in Mus musculus, po, read-out: ED50 SOD (Staph aureus Smith)",4 mg/kg
same,ED50,"[18]; Staphylococcus aureus, in Mus musculus, po, read-out: ED50 Staph Smith SOD",4 mg/kg
same,ED50,"[18]; iv, read-out: ED50 Staph Smith SIV",0.75 mg/kg
same,MIC,"[19]; GC2214, read-out: MINIMAL INHIBITORY CONCENTRATION MIC, pre-incubated in Human Serum",> 64 µg/mL
same,MIC,"[19]; GC2214, read-out: MINIMAL INHIBITORY CONCENTRATION MIC, pre-incubated in Mouse Serum",> 64 µg/mL
same,MIC,"[19]; GC2214, read-out: MINIMAL INHIBITORY CONCENTRATION MIC, pre-incubated in Water",> 64 µg/mL
same,MIC,"[20]; GC6469, read-out: MINIMAL INHIBITORY CONCENTRATION MIC, pre-incubated in Human Serum",2 µg/mL
same,MIC,"[20]; GC6469, read-out: MINIMAL INHIBITORY CONCENTRATION MIC, pre-incubated in Mouse Serum",2 µg/mL
same,MIC,"[20]; GC6469, read-out: MINIMAL INHIBITORY CONCENTRATION MIC, pre-incubated in Water",4 µg/mL
